# Results as given in patent US20150174144A1, “TETRACYCLINE COMPOUNDS FOR TREATING NEURODEGENERATIVE DISORDERS” (PARATEK PHARMACEUTICALS, INC., priority 2012, published 2015).
# Several values for one entry are separate records, joined by “and”; a condition that tells them apart may be missing. Identical values can stand only once. Like-named read-outs stand apart in the source and are kept apart here. Marks after values point to notes of the source that are not given here.
# Columns and labels:
# [1] = system: LPS-induced production of NO by J774A.1 macrophages; assay: NO production assay, LPS-activated J774A.1 macrophages; assay type: cell-based; conditions: Mus musculus, J774.A1; 10 ng/ml LPS, 20 hr
# Protocol: (§1) The J774A.1 mouse macrophage cell line was grown to confluence in DMEM medium containing 10% fetal bovine serum (FBS). Cells were harvested into single-cell suspensions (by incubation on ice and agitation), seeded into 96-well plates at 1×10^5 cells/well (200 μL volume) and incubated (5% CO2, 37° C.) overnight. Compounds were added to the cells at final concentrations ranging from 50 to 1 μM and pre-incubated for 1 hr. Lipopolysaccharide (LPS) was added to the cells at a final concentration of 10 ng/ml. After incubation for 20 hr, culture supernatants were harvested and transferred to a new 96-well plate. Levels of LPS-induced NO in the supernatants were quantified by Greiss reagent (Active Motif) with supernatants from unstimulated cells serving as a negative control.
# [2] = system: cuprizone-induced demyelination; assay: Mouse model of cuprizone-induced demyelination; assay type: in vivo, C57BL/6 female mice
# Protocol: Compound 1 was tested in the mouse model of cuprizone-induced demyelination to determine the protective effects of Compound 1. The general protocol for cuprizone model demyelination is as follows:
# C57BL/6 female mice at 7-8 weeks old were fed a cuprizone diet (7012, 0.2% cuprizone mixed in standard pellet rodent chow purchased from Harlan Teklad, Indianapolis, Ind., USA) for 5 weeks. The cuprizone food was changed every two days and given ad libitum along with water. An additional group of mice was fed normal chow for 5 weeks to serve as a no cuprizone control.
# Animals were dosed intraperitoneally (i.p.) once daily based on body weight with Compound 1 (25 mg/kg, 10 mL/kg in saline), minocycline positive control (25 mg/kg, 10 mL/kg in saline) or saline sham starting on the day of cuprizone diet initiation (day 0) and continuing until day of harvest.
# At 3, 4, and 5 weeks of cuprizone feeding, ten mice from each group were euthanized by CO2 asphyxiation and decapitation and the brains were harvested and fixed in 10% buffered neutral formalin.
# Postfixed brains were paraffin embedded and 8-12 μm serial sections of the brain between the septostriatal and rostral diencephalon were prepared for luxol fast blue periodic acid-Schiff base (LFB-PAS) staining (demyelination). Both medial and lateral demyelination of the corpus callosum was determined.
# Demyelination scores for the medial corpus callosum ranged from 0 to 4 (0=fully myelinated, 1=<⅓ demyelination in the center of the medial corpus callosum, 2=<⅔ demyelination in the center of the corpus callosum, 3=no myelin in the center of corpus callosum and 4=demyelination extending to the arch of the medial corpus callosum). Demyelination in the lateral corpus callosum was scored on weeks 4 and 5 and ranged from 0 to 3 (0=normal myelination and 3=complete demyelination). Demyelination was scored 2-3 times for at least 2 brain sections.
# Axon loss in the medial corpus callosum was determined on additional serial sections of brain using Bielschowsky silver staining. Axon loss in the medial corpus callosum was scored from 0-4 (0=normal number of axons to 4=complete axon loss) at 3, 4 and 5 weeks. Slides were scored by two technicians who were blinded to the treatment groups.
# E. coli = assay: Antibacterial activity, E. coli MIC; assay type: cell-based; conditions: Escherichia coli; Table 8
# [3] = system: LPS-induced TNFα production by RAW 264.7 macrophages; assay: TNFα production assay, LPS-activated RAW 264.7 macrophages; assay type: cell-based; conditions: Mus musculus, RAW264.7
# Protocol: Compound 1 was tested to determine specific anti-inflammatory characteristics. In vitro assays to assess the inhibition of substrate cleavage by matrix metalloproteinase 9 (MMP-9) and the inhibition of TNFα production by lipopolysaccharide (LPS)-activated macrophages were performed. MMP-9 activity was determined by fluorescence after incubation of recombinant MMP-9 with fluorescein-conjugated DQ gelatin for 90 min. TNFα production was determined by incubation of 10 ng/ml LPS with RAW264.7 macrophage cells for 24 h, followed by quantitation of TNFα in culture supernatant by ELISA.
# as §1, with “RAW 264.7” for “J774A.1”, “suspensions,” for “suspensions (by incubation on ice and agitation),”, “1-2×10^5” for “1×10^5”, “30 min.” for “1 hr.”, “TNFα” for “NO”, “ELISA (R & D Systems)” for “Greiss reagent (Active Motif)”
# [4] = Lateral Corpus Callosum, Week 4, 25 mg/kg/d i.p.
# [5] = Lateral Corpus Callosum, Week 5, 25 mg/kg/d i.p.
# [6] = Medial Corpus Callosum, Week 3, 25 mg/kg/d i.p.
# [7] = Medial Corpus Callosum, Week 4, 25 mg/kg/d i.p.
# [8] = Medial Corpus Callosum, Week 5, 25 mg/kg/d i.p.
# [9] = 10 ng/ml LPS, 20 hr, read-out: TNFα Production (RAW264.7) IC50
# [10] = Table 4, unit inferred, read-out: TNFα production (RAW264.7)
Compound,IC50 [1] [µM],"% Inhibition Demyelination [2, 4]","% Inhibition Demyelination ([2]; Lateral Corpus Callosum, Week 4, 25 mg/kg/d i.p., listed as minocycline) [%]","% Inhibition Demyelination [2, 5] [%]","% Inhibition Axon Loss [2, 6]","% Inhibition Demyelination [2, 6] [%]","% Inhibition Axon Loss [2, 7] [%]","% Inhibition Demyelination [2, 7] [%]","% Inhibition Axon Loss [2, 8] [%]","% Inhibition Demyelination [2, 8] [%]",MIC (E. coli) [µg/mL],"IC50 [3, 9] [µM]","IC50 [3, 10] [µM]"
"CN(C)c1ccc(O)c2c1C[C@H]1C[C@H]3[C@H](N(C)C)C(O)=C(C(N)=O)C(=O)[C@@]3(O)C(O)=C1C2=O [Minocycline, minocycline, reference compound]",46 ± 2.1,63* %,63,25,29%,31,30,17,−10,12,1,47,47
CCc1cc(N(C)C)c2c(c1O)C(=O)C1=C(O)[C@]3(O)C(=O)C(C(N)=O)=C(O)[C@@H](N(C)C)[C@@H]3C[C@@H]1C2 [Compound 1],30,62%,,29,62% and 66* %,70,41,13,3,−11,> 64,10.9 ± 1.6,10.9 ± 1.6
